This passage reports IC50 results from US20240279236A1, “COMPOUNDS AND METHODS OF TREATING TUBERCULOSIS” (Fimbrion Therapeutics, Inc., priority 2021, published 2024).

One may read the IC50 as the concentration needed to halve the response being measured.

The structures appear in SMILES notation. Bounds are passed on as bounds.

One experiment concerns WT Mtb Erdman strain. As to the kind of experiment: Microplate Alamar Blue Assay (MABA), Mtb growth inhibition. Format: cell-based, Mycobacterium tuberculosis. Particulars: Middlebrook 7H9 media, 7 days at 37° C. in 5% CO2.
`Cc1cc2c(NCCCc3ccc(-c4ccc(OC(F)(F)F)cc4)cc3)nc(N(C)C)nc2s1` [Example 535, N2,N2,6-trimethyl-N4-(3-(4′-(trifluoromethoxy)-[1,1′-biphenyl]-4-yl)propyl)thieno[2,3-d]pyrimidine-2,4-diamine] gave a concentration for half-maximal inhibition (IC50) of 0.004 µM.

The same experiment, now with this note: Mycobacterium tuberculosis, ERDMAN, 168 h, Middlebrook 7H9 media, 7 days at 37° C. in 5% CO2.
Compound `Cc1cc2c(NC(CCc3ccccc3)C(F)(F)F)nc(C(F)(F)F)nc2s1` (centres unmarked) [Example 169, 6-methyl-N-(1,1,1-trifluoro-4-phenylbutan-2-yl)-2-(trifluoromethyl) thieno[2,3-d] pyrimidin-4-amine] registered a 50% inhibitory concentration (IC50) above 10 µM.

On to `Cc1cc2c(NCCCc3ccc(-c4cnc(C(F)(F)F)cn4)cc3)nc(-c3ccoc3)nc2s1` [Example 379, 2-(furan-3-yl)-6-methyl-N-(3-(4-[5-(trifluoromethyl)pyrazin-2-yl]phenyl)propyl) thieno[2,3-d]pyrimidin-4-amine], for which it took 0.012 µM to reach half-maximal inhibition (IC50).

The compound `Cc1cnc(-c2ccc(CCCNc3nc(N(C)C)nc4sc(C)cc34)cc2)cn1` [Example 559, N2,N2,6-trimethyl-N4-(3-[4-(5-methylpyrazin-2-yl)phenyl]propyl)thieno[2,3-d]pyrimidine-2,4-diamine] gave an IC50 of 0.011 µM.

`CCOc1nc(NCCCc2ccccc2)c2ccsc2n1` [Example 542, 2-ethoxy-N-(3-phenylpropyl)thieno[2,3-d]pyrimidin-4-amine] showed a concentration for half-maximal inhibition (IC50) of 0.15 µM.

In turn, `CSc1nc(NCCCc2ccc(-c3ccc(C(F)(F)F)nc3)cc2)c2cc(C)sc2n1` [Example 431, 6-methyl-2-(methylthio)-N-(3-(4-(6-(trifluoromethyl)pyridin-3-yl)phenyl)propyl)thieno[2,3-d]pyrimidin-4-amine] registered an IC50 of 0.02 µM.

Consider `Cc1nc(NCCCc2ccccc2)c2nc(Cl)sc2n1` [Example 583, 2-chloro-5-methyl-N-(3-phenylpropyl)thiazolo[5,4-d]pyrimidin-7-amine], for which the IC50 was determined as 5.8 µM.

`Cc1cc2c(NCCCc3ccccc3)nc(N3CCC[C@H]3C)nc2s1` [Example 514, (R)-6-methyl-2-(2-methylpyrrolidin-1-yl)-N-(3-phenylpropyl)thieno[2,3-d]pyrimidin-4-amine] displayed a half-inhibitory concentration (IC50) of 7 µM.

Consider `Cc1ccc(-c2nc(NCCCc3ccccc3)c3cc(C)sc3n2)o1` [Example 132, 6-methyl-2-(5-methylfuran-2-yl)-N-(3-phenylpropyl)thieno [2,3-d]pyrimidin-4-amine], for which the IC50 was 6.6 µM.

Compound `CSc1nc(NCCCc2ccc(-c3ccc(OC(F)(F)F)cc3)cc2)c2nc(C)sc2n1` [Example 292, 2-methyl-5-(methylthio)-N-(3-(4′-(trifluoromethoxy)-[1,1′-biphenyl]-4-yl)propyl)thiazolo [5,4-d]pyrimidin-7-amine] yielded an IC50 of 0.016 µM.

In turn, `Cc1cc2c(NCCCc3cccc(C(F)(F)F)c3)nc(C(F)(F)F)nc2s1` [Example 179, 6-methyl-2-(trifluoromethyl)-N-(3-(3-(trifluoromethyl)phenyl)propyl) thieno[2,3-d] pyrimidin-4-amine] displayed a half-maximal inhibitory concentration (IC50) of 1.7 µM.

Turning to `COC(=O)c1cccc(CCCNc2nc(C(F)(F)F)nc3sc(C)cc23)c1` [Example 229, methyl 3-(3-((6-methyl-2-(trifluoromethyl)thieno [2,3-d]pyrimidin-4-yl)amino)propyl) benzoate], the 50% inhibitory concentration (IC50) was determined as 5.9 µM.

`Cc1cc2c(N[C@@H]3C[C@H]3c3ccc(F)c(F)c3)nc(C(C)(F)F)nc2s1` [Example 50, 2-(1,1-difluoroethyl)-N-((1R,2S)-2-(3,4-difluorophenyl)cyclopropyl)-6-methylthieno[2,3-d]pyrimidin-4-amine] displayed an IC50 of 1.1 µM.

The compound `Cc1cc2c(NCCCc3ccccc3)nc(-n3ccnn3)nc2s1` [Example 586, 6-methyl-N-(3-phenylpropyl)-2-(1H-1,2,3-triazol-1-yl)thieno[2,3-d]pyrimidin-4-amine] returned an IC50 of 0.2 µM.

The compound `Cc1cc2c(NCCCc3ccc(-c4cnc(C#N)cn4)cc3)nc(-c3ccoc3)nc2s1` [Example 396, 5-[4-(3-([2-(furan-3-yl)-6-methylthieno[2,3-d]pyrimidin-4-yl]amino)propyl)phenyl]pyrazine-2-carbonitrile] yielded an IC50 below 0.005 µM.

In the case of `Cc1cc2c(NCCCc3ccccc3)nc(N3CCC(F)(F)CC3)nc2s1` [Example 515, 2-(4,4-difluoropiperidin-1-yl)-6-methyl-N-(3-phenylpropyl)thieno[2,3-d]pyrimidin-4-amine], the IC50 is above 10 µM.

For `CCc1nc(NCCCc2ccc(-c3ccc(OC(F)(F)F)cc3)cc2)c2cc(C)sc2n1` [Example 266, 2-ethyl-6-methyl-N-(3-(4′-(trifluoromethoxy)-[1,1′-biphenyl]-4-yl)propyl)thieno [2,3-d]pyrimidin-4-amine], the midpoint of inhibition, the IC50, lay at 0.049 µM.

With `Cc1cc2c(NCCCc3ccc(-c4ccc([N+](=O)[O-])cc4)cc3)nc(N3CCCC3)nc2s1` [Example 549, 6-methyl-N-(3-(4′-nitro-[1,1′-biphenyl]-4-yl)propyl)-2-(pyrrolidin-1-yl)thieno[2,3-d]pyrimidin-4-amine], half-maximal inhibition (IC50) was put at 0.029 µM.

`Cc1cc2c(NCCCc3ccccc3)nc(C(N)=O)nc2s1` [Example 96, 6-methyl-4-((3-phenylpropyl)amino) thieno[2,3-d]pyrimidine-2-carboxamide] gave an IC50 of 0.13 µM.

In the case of `CCc1nc(NCCc2ccc(C(F)(F)F)cc2)c2cc(C)sc2n1` [Example 19, 2-ethyl-6-methyl-N-(4-(trifluoromethyl)phenethyl)thieno[2,3-d]pyrimidin-4-amine], the half-maximal inhibitory concentration (IC50) was determined as 2.9 µM.

Compound `Cc1cc2c(NCCCc3cccc(F)c3)nc(C(F)(F)F)nc2s1` [Example 231, N-(3-(3-fluorophenyl)propyl)-6-methyl-2-(trifluoromethyl)thieno [2,3-d]pyrimidin-4-amine] had a 50% inhibitory concentration (IC50) of 1.5 µM.

In turn, `Cc1cc2c(NCCCc3ccccc3)nc(N3CC(F)(F)C3)nc2s1` [Example 511, 2-(3,3-difluoroazetidin-1-yl)-6-methyl-N-(3-phenylpropyl)thieno[2,3-d]pyrimidin-4-amine] came in with an IC50 of 0.57 µM.

Compound `Cc1cc2c(NCC(O)Cc3ccccc3)nc(C(F)(F)F)nc2s1` (centres unmarked) [Example 163, 1-((6-methyl-2-(trifluoromethyl)thieno[2,3-d]pyrimidin-4-yl)amino)-3-phenylpropan-2-ol] came in with a 50% inhibitory concentration (IC50) above 10 µM.

The compound `CCSc1nc(NCCCc2ccc(-c3ccc(OC(F)(F)F)cc3)cc2)c2cc(C)sc2n1` [Example 448, 2-(ethylthio)-6-methyl-N-(3-(4′-(trifluoromethoxy)-[1,1′-biphenyl]-4-yl)propyl)thieno[2,3-d]pyrimidin-4-amine] displayed an IC50 of 0.044 µM.

As for `Cc1cc2c(NCCCc3ccc(-c4ccc(OC(F)(F)F)cc4)cc3)nc(-c3ccon3)nc2s1` [Example 263, 2-(isoxazol-3-yl)-6-methyl-N-(3-(4′-(trifluoromethoxy)-[1,1′-biphenyl]-4-yl)propyl)thieno [2,3-d]pyrimidin-4-amine], the concentration for half-maximal inhibition (IC50) was 0.013 µM.

Turning to `CCc1nc(NCCCc2ccc3ncccc3c2)c2cc(C)sc2n1` [Example 254, 2-ethyl-6-methyl-N-(3-(quinolin-6-yl)propyl)thieno[2,3-d]pyrimidin-4-amine], the 50% inhibitory concentration (IC50) was found to be 1.5 µM.

Take `Cc1cc2c(NCCCc3ccc(C(F)(F)F)cc3)nc(C(F)(F)F)nc2s1` [Example 48, 6-methyl-2-(trifluoromethyl)-N-(3-(4-(trifluoromethyl)phenyl)propyl)thieno[2,3-d] pyrimidin-4-amine]: half-maximal inhibition (IC50) was put at 2.6 µM.

The compound `Cc1cc2c(NCCCc3ccc(C4CCCCC4)cc3)nc(C(F)(F)F)nc2s1` [Example 234, N-(3-(4-cyclohexylphenyl)propyl)-6-methyl-2-(trifluoromethyl) thieno[2,3-d] pyrimidin-4-amine] displayed a concentration for half-maximal inhibition (IC50) of 1.8 µM.

`Cc1cc2c(NCCCc3ccc(C4CC4)cc3)nc(C(F)(F)F)nc2s1` [Example 237, N-(3-(4-cyclopropylphenyl)propyl)-6-methyl-2-(trifluoromethyl) thieno[2,3-d] pyrimidin-4-amine]: the IC50 is 1.8 µM.

As to `Cc1cc2c(NCCCc3ccccc3)nc(CC3CC3)nc2s1` [Example 97, 2-(cyclopropyLMethyl)-6-methyl-N-(3. phenylpropyl)thieno [2,3-d]pyrimidin-4-amine], half-maximal inhibition (IC50) required 0.36 µM.

Take `Cc1cc2c(NCCCc3ccccc3)nc(SC(C)C)nc2s1` [Example 100, 2-(isopropylthio)-6-methyl-N-(3-phenylpropyl)thieno [2,3-d]pyrimidin-4-amine]: the IC50 turned out to be 3.2 µM.

For the compound `CCc1nc(NC(=O)CCCc2ccccc2)c2cc(C)sc2n1` [Example 576, N-(2-ethyl-6-methylthieno[2,3-d]pyrimidin-4-yl)-4-phenylbutanamide], 3.4 µM corresponded to half-maximal inhibition (IC50).

`Cc1cc2c(N[C@@H]3C[C@H]3c3ccccc3)nc(C(F)(F)F)nc2s1` [Example 167, 6-methyl-N-((1R,2S)-2-phenylcyclopropyl)-2-(trifluoromethyl) thieno[2,3-d] pyrimidin-4-amine]: it took 0.49 µM to reach half-maximal inhibition (IC50).

In turn, `Cc1cc2c(N[C@@H]3C[C@H]3c3ccc(F)c(F)c3)nc(-c3ccco3)nc2s1` [Example 88, N-((1R,2S)-2-(3,4-difluorophenyl)cyclopropyl)-2-(furan-2-yl)-6-methylthieno[2,3-d]pyrimidin-4-amine] registered an IC50 of 2.2 µM.

With `Cc1cc2c(NCCCc3ccc(-c4cnc(F)cn4)cc3)nc(Cl)nc2s1` [Example 469, 2-chloro-N-(3-(4-(5-fluoropyrazin-2-yl)phenyl)propyl)-6-methylthieno[2,3-d]pyrimidin-4-amine], the IC50 came to 0.17 µM.

`Cc1cc2c(NCCC(=O)N3CCN(c4ccccc4)CC3)nc(-c3ccoc3)nc2s1` [Example 210, 3-((2-(furan-3-yl)-6-methylthieno[2,3-d]pyrimidin-4-yl)amino)-1-(4-phenylpiperazin-1-yl)propan-1-one] showed an IC50 of 8.2 µM.

For the compound `c1ccc(CCCNc2nc(N3CCOCC3)nc3sccc23)cc1` [Example 504, 2-morpholino-N-(3-phenylpropyl)thieno[2,3-d]pyrimidin-4-amine], the IC50 is above 10 µM.

Regarding `COc1ccc(CCCNc2nc(C(F)(F)F)nc3sc(C)cc23)cc1` [Example 49, N-(3-(4-methoxyphenyl)propyl)-6-methyl-2-(trifluoromethyl)thieno [2,3-d]pyrimidin-4-amine], the IC50 was 2 µM.
